From PubChem BioAssay AID330 (DTP/NCI, 2004) come the findings set out here.

Values joined by “and” are separate entries in the source; they are usually repeats but may differ in a detail not shown here. Equal entries are not always repeated. Toxic doses and inconclusive results are not listed.

For the experiment, the system named is P388 leukemia ip, CD2F1 mice, survival T/C. The experiment in a line: NCI In Vivo Anticancer Drug Screen. Data for tumor model P388 Leukemia (intraperitoneal) in CD2F1 (CDF1) mice. The conditions noted are these: endpoint: median survival time, higher = longer survival. The procedure, abridged:
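Mice carrying the transplanted tumor received test compound or vehicle. Survival was recorded in each group, and the value is the treated-group measurement divided by that of the vehicle-treated control group.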

The mark [1] stands for this setting: dose: 60.0 mg/kg/injection, schedule: Q01DX005 (ip), vehicle: Klucel (hydroxypropylcellulose) (HPC).
The mark [2] stands for this setting: dose: 120.0 mg/kg/injection, schedule: Q01DX005 (ip), vehicle: Klucel (hydroxypropylcellulose) (HPC).
Setting [3] is: dose: 240.0 mg/kg/injection, schedule: Q01DX005 (ip), vehicle: Klucel (hydroxypropylcellulose) (HPC).
Where [4] appears, read: dose: 60.0 mg/kg/injection, schedule: Q01DX005 (ip), vehicle: saline with Tween-80.
Setting [5] is: dose: 120.0 mg/kg/injection, schedule: Q01DX005 (ip), vehicle: saline with Tween-80.
[6] abbreviates: dose: 100.0 mg/kg/injection, schedule: Q01DX001 (ip), vehicle: saline with Tween-80.
[7] abbreviates: dose: 200.0 mg/kg/injection, schedule: Q01DX001 (ip), vehicle: saline with Tween-80.
The mark [8] stands for this setting: dose: 400.0 mg/kg/injection, schedule: Q01DX001 (ip), vehicle: saline with Tween-80.
The mark [9] stands for this setting: dose: 100.0 mg/kg/injection, schedule: Q04DX003 (ip), vehicle: saline.
The mark [10] stands for this setting: dose: 100.0 mg/kg/injection, schedule: Q04DX002 (ip), vehicle: saline with Tween-80.
[11] abbreviates: dose: 200.0 mg/kg/injection, schedule: Q04DX002 (ip), vehicle: saline with Tween-80.
[12] abbreviates: dose: 400.0 mg/kg/injection, schedule: Q04DX002 (ip), vehicle: saline with Tween-80.

On to `NC1CCNC(O)[N-]1.NC1CCNC(O)[N-]1.[Cl][Pd][Cl]` (configuration not stated), for which the T/C is, setting by setting: under setting [1], 97 % of control; under setting [2], 103 % of control; under setting [3], 112 % of control.
Take `ClC1=C(Cl)C2(Cl)C3C4CC(C5OC45)C3C1(Cl)C2(Cl)Cl` (configuration not stated): the T/C runs as follows: (dose: 3.13 mg/kg/injection, schedule: Q01DX009 (ip), vehicle: saline with Tween-80) 104 % of control and 97 % of control; (dose: 6.25 mg/kg/injection, schedule: Q01DX009 (ip), vehicle: saline with Tween-80) 90 % of control and 97 % of control; (dose: 12.5 mg/kg/injection, schedule: Q01DX009 (ip), vehicle: saline with Tween-80) 86 % of control.
On to `O=C(Oc1ccc(Cl)cc1Cl)C(Cl)=C(Cl)Cl`, for which the T/C was 97 % of control (dose: 50.0 mg/kg/injection, schedule: Q01DX009 (ip), vehicle: saline); 111 % of control (dose: 100.0 mg/kg/injection, schedule: Q01DX009 (ip), vehicle: saline); 101 % of control (dose: 200.0 mg/kg/injection, schedule: Q01DX009 (ip), vehicle: saline).
Consider `CCN(CC)CCNC(=O)c1ccc(NCN2C(=O)NC(c3ccccc3)(c3ccccc3)C2=O)cc1`, for which the T/C is, setting by setting: under setting [4], 104 % of control; under setting [5], 110 % of control.
On to `COc1cc2oc(=O)cc(C)c2cc1[N+](=O)[O-]`, for which the T/C runs as follows: (dose: 50.0 mg/kg/injection, schedule: Q01DX009 (ip), vehicle: suspension in saline) 98 % of control; (dose: 100.0 mg/kg/injection, schedule: Q01DX009 (ip), vehicle: suspension in saline) 95 % of control; (dose: 200.0 mg/kg/injection, schedule: Q01DX009 (ip), vehicle: suspension in saline) 96 % of control.
As to `NS(=O)(=O)c1ncc(C(=O)N2CCN(Cc3ccccc3)CC2)[nH]1`, the T/C is 103 % of control under setting [4]; 107 % of control under setting [5]; 100 % of control (dose: 240.0 mg/kg/injection, schedule: Q01DX005 (ip), vehicle: saline with Tween-80).
`O=C1CSC(c2c(O)ccc3ccccc23)N1CCN1C(=O)CSC1c1c(O)ccc2ccccc12` (configuration not stated): the T/C runs as follows: under setting [6], 97 % of control; under setting [7], 92 % of control; under setting [8], 90 % of control.
Turning to `O=C(NC(=S)c1ccc(Br)cc1)NS(=O)(=O)c1ccccc1`, the T/C is, setting by setting: under setting [6], 107 % of control; under setting [7], 102 % of control; under setting [8], 102 % of control.
On to `CC(C)(C)[Si](C)(C)O[C@H]1C=C(S(=O)(=O)c2ccccc2)[C@H](O)C1`, for which the T/C reads like this: under setting [1], 100 % of control; under setting [2], 102 % of control; under setting [3], 100 % of control.
Regarding `Cc1cc(Oc2cnc(=O)[nH]c2)cs1`, the T/C runs as follows: under setting [1], 100 % of control; under setting [2], 94 % of control; under setting [3], 94 % of control.
Take `NCCc1c[nH]c2ccc(OCc3ccccc3)cc12`: the T/C reads like this: (dose: 50.0 mg/kg/injection, schedule: Q04DX003 (ip), vehicle: saline) 109 % of control; under setting [9], 116 % of control.
With `COc1ccc(Cc2cc3c(cc2O)OCO3)cc1`, the T/C reads like this: (dose: 2.5 mg/kg/injection, schedule: Q01DX009 (ip), vehicle: saline with Tween-80) 99 % of control; (dose: 5.0 mg/kg/injection, schedule: Q01DX009 (ip), vehicle: saline with Tween-80) 101 % of control; (dose: 10.0 mg/kg/injection, schedule: Q01DX009 (ip), vehicle: saline with Tween-80) 101 % of control; (dose: 15.0 mg/kg/injection, schedule: Q01DX005 (ip), vehicle: saline with Tween-80) 107 % of control; (dose: 31.0 mg/kg/injection, schedule: Q01DX005 (ip), vehicle: saline with Tween-80) 102 % of control; (dose: 62.5 mg/kg/injection, schedule: Q01DX005 (ip), vehicle: saline with Tween-80) 106 % of control. Further, the T/C is 100 % of control (dose: 125.0 mg/kg/injection, schedule: Q01DX005 (ip), vehicle: saline with Tween-80) and 102 % of control (dose: 250.0 mg/kg/injection, schedule: Q01DX005 (ip), vehicle: saline with Tween-80).
For `COc1cc2c(cc1OC)-c1nc(Nc3ccccc3)sc1CC2`, the T/C was 106 % of control (dose: 50.0 mg/kg/injection, schedule: Q01DX009 (ip), vehicle: saline with Tween-80); 106 % of control (dose: 100.0 mg/kg/injection, schedule: Q01DX009 (ip), vehicle: saline with Tween-80); 89 % of control (dose: 200.0 mg/kg/injection, schedule: Q01DX009 (ip), vehicle: saline with Tween-80).
`O=C1CS(=O)(=O)C(c2cccnc2)N1CCN1C(=O)CS(=O)(=O)C1c1cccnc1` (configuration not stated): the T/C is 97 % of control under setting [10], 93 % of control under setting [11] and 92 % of control under setting [12].
Regarding `[NH-]CC(=O)O.[NH-]CC(=O)O.[NH-]CC(=O)O.[NH-]CC(=O)O.[Pt+4]`, the T/C is, setting by setting: (dose: 12.5 mg/kg/injection, schedule: Q01DX009 (ip), vehicle: distilled water + Tween-80) 93 % of control; (dose: 25.0 mg/kg/injection, schedule: Q01DX009 (ip), vehicle: distilled water + Tween-80) 94 % of control; (dose: 50.0 mg/kg/injection, schedule: Q01DX009 (ip), vehicle: distilled water + Tween-80) 101 % of control; (dose: 100.0 mg/kg/injection, schedule: Q01DX009 (ip), vehicle: distilled water + Tween-80) 104 % of control; (dose: 200.0 mg/kg/injection, schedule: Q01DX009 (ip), vehicle: distilled water + Tween-80) 104 % of control.
`COC1C(N)C(OC2C(Oc3cccc4c(O)c5c(=O)oc6ccc(C)c7c(=O)oc(c34)c5c67)OC(C)C(O)C2(C)O)OC(C)C1O` (configuration not stated): the T/C was 183 % of control (dose: 0.63 mg/kg/injection, schedule: Q01DX009 (ip), vehicle: other); 198 % of control (dose: 1.25 mg/kg/injection, schedule: Q01DX009 (ip), vehicle: other); 202 % of control (dose: 2.5 mg/kg/injection, schedule: Q01DX009 (ip), vehicle: other); 276 % of control (dose: 5.0 mg/kg/injection, schedule: Q01DX009 (ip), vehicle: other).
In the case of `N#Cc1c(NCc2ccccc2)nc2c3ccccc3ccn2c1=O`, the T/C is 95 % of control (dose: 25.0 mg/kg/injection, schedule: Q04DX002 (ip), vehicle: saline with Tween-80); 97 % of control (dose: 50.0 mg/kg/injection, schedule: Q04DX002 (ip), vehicle: saline with Tween-80); 95 % of control under setting [10].
For `COSc1cccc(C(F)(F)F)c1`, the T/C under setting [9] is 100 % of control; the T/C (dose: 200.0 mg/kg/injection, schedule: Q04DX003 (ip), vehicle: saline) was 100 % of control; the T/C (dose: 400.0 mg/kg/injection, schedule: Q04DX003 (ip), vehicle: saline) was 97 % of control.
As to `O=C1C=C2OCOC2=CC1=O`, the T/C is, setting by setting: (dose: 4.38 mg/kg/injection, schedule: Q01DX005 (ip), vehicle: Klucel (hydroxypropylcellulose) (HPC)) 100 % of control; (dose: 8.75 mg/kg/injection, schedule: Q01DX005 (ip), vehicle: Klucel (hydroxypropylcellulose) (HPC)) 99 % of control; (dose: 17.5 mg/kg/injection, schedule: Q01DX005 (ip), vehicle: Klucel (hydroxypropylcellulose) (HPC)) 103 % of control and 104 % of control.
Take `CN(C)C(=S)Oc1cc(-c2c(OC(=S)N(C)C)ccc3ccccc23)c2ccccc2c1`: the T/C is, setting by setting: under setting [10], 105 % of control; under setting [11], 102 % of control; under setting [12], 96 % of control.
For the compound `O=C(CCl)NC(O)C(Cl)(Cl)Cl` (configuration not stated), the T/C reads like this: (dose: 50.0 mg/kg/injection, schedule: Q01DX005 (ip), vehicle: saline with Tween-80) 101 % of control; (dose: 100.0 mg/kg/injection, schedule: Q01DX005 (ip), vehicle: saline with Tween-80) 99 % of control; (dose: 200.0 mg/kg/injection, schedule: Q01DX005 (ip), vehicle: saline with Tween-80) 103 % of control.
With `COc1cc2c(cc1OCc1ccccc1)C(Cc1cc(Br)sc1Br)N(C(C)=O)CC2` (configuration not stated), the T/C runs as follows: (dose: 63.0 mg/kg/injection, schedule: Q01DX001 (ip), vehicle: Klucel (hydroxypropylcellulose) (HPC)) 97 % of control; (dose: 126.0 mg/kg/injection, schedule: Q01DX001 (ip), vehicle: Klucel (hydroxypropylcellulose) (HPC)) 101 % of control; (dose: 252.0 mg/kg/injection, schedule: Q01DX001 (ip), vehicle: Klucel (hydroxypropylcellulose) (HPC)) 109 % of control.
